According to US6541523B2, “Methods for treating or preventing fibromyalgia using very low doses of cyclobenzaprine” (Vela Pharmaceuticals, Inc., priority 1999, dated 2003):
Where two headings read alike, the source gives them in different places.

Key:
[1] = tested on: patients with fibromyalgia
Description: Quantification of improvement may be measured according to methods known in the art. For example, pain may be measured using tender point count, the McGill Pain Questionnaire, the Arthritis Impact Measurement Scales (AIMS), the Sickness Impact Profile (SIP), the Health Assessment Questionnaire (HAQ) functional disability index, the Symptom Checklist-90R, and dolorimeter scores. […] (Alarcon, Graciela, et al., “Advances in the Treatment of Fibromyalgia: Current Status and Future Directions”, Am. J. Med. Sciences, 315:397-404 (1998).)
(§1) The quality of sleep (“sleep disturbance”) may be determined, inter alia, by asking the patient if he/she awakened tired or nonrefreshed “never,” “seldom,” “often or usually,” or “always.” Replies of “often or usually” or “always” may be scored as positive and other replies as negative. Patients reports of well-being or relief from “zombie” or “spacey” feelings, feelings of being “run down,” and having difficultly concentrating during waking hours are indications of better quality of sleep or deep, refreshing sleep.
They were on a dose of ⅓ tablet of cyclobenzaprine (3 33 mg).
patient four, a person homemaker, presented with complaints of chest pain previously attributed to their known history of mitral valve prolapse. They also complained of a several year history of fatigue.
patient two, a active grandparent, presented with the new onset of cervical and lumbar muscular pains associated with poor quality sleep and fatigue. The patient was diagnosed with fibromyalgia.
patient seven, a person homemaker, presented with complaints of diffuse pain and fatigue.
patient three, a person homemaker, presented with complaints of right trapezius spasm. They had recently been started on paroxetine, 20 mg p.o. qd for mild depression, and had also noted disrupted sleep quality with frequent awakening with resultant fatigue and daytime somnolence. […] They were diagnosed with fibromyalgia and was begun on cyclobenzaprine 10 mg p.o. qHS for the diagnosis of fibromyalgia and possible sleep disturbance due to the SSRI paroxetine.
patient one, a person homemaker, had recently given birth to a healthy baby, and in during the later stages of pregnancy and in the post-partem period noted fatigue and exhaustion associated with multiple areas of muscular soreness.
patient six, a executive, presented with complaints of “burning pains” in their muscles, associated with sleep disturbance with frequent awakening and resultant fatigue.
patient five, a executive, had been tried on multiple medications by a “fibromyalgia specialist,” who according to the patient had performed over $2,000 in blood tests, diagnosing “yeast infection in the blood” and multiple allergies.

[2] = tested on: patients with sleep disturbance; settings: single patient report
Description: as §1

[3] = tested on: cyclobenzaprine-treated patients; settings: cited from earlier work
fibromyalgia patients [4] = settings: twenty to forty mgs per day; twelve fibromyalgia patients; cited from earlier work
fibromyalgia patients [5] = settings: cited from earlier work
fibromyalgia patients [6] = settings: five mgs per day; some fibromyalgia patients; anecdotal; cited from earlier work
[7] = ⅓ tablet (3 33 mg), single patient report

With `CN(C)CCC=C1c2ccccc2C=Cc2ccccc21` [cyclobenzaprine, 3-(5H-Dibenzo[a,d]cyclohepten-5-ylidene)-N,N-dimethyl-1-propanamine] the Symptom response ([1]; 10 mg p.o. qHS, single patient report) was “helping their muscular pains”, the “Course after stopping cyclobenzaprine” value ([1]; discontinuation of ¼ tablet (2.5 mg), single patient report) was “immediate return of all of their previous symptoms” and the “Effect on sleep disturbance, fatigue and diffuse pain” value ([1]; less than 5 mg/day qHS, applicant's summary for many patients) was “surprisingly effective at treating the sleep disturbance”. For the same compound, the Symptom response ([1]; ½ tablet (5 mg) p.o. qHS, single patient report) was “symptoms abated”, the Side effects [1, 7] was “no adverse effects” and the Symptom response [1, 7] was “alleviated their symptoms”. For the same compound, the “Sleep and energy response” value ([2]; ¼ to ½ tablet (2.5-5 mg)) was “improved sleep and increased energy, with resolution of their daytime somnolence”, the Side effects ([2]; ½ tablet (5 mg)) was ““grogginess” during the day” and the “Less common side effects” value ([3]; cyclobenzaprine treatment) was “nausea, tiredness, constipation, blurred vision, nervousness, confusion, abdominal pain and discomfort”. For the same compound, the Organ toxicity ([3]; recommended doses) was “No indications of organ toxicity”, the “Toxic effects on overdose” value ([3]; three individuals who ingested between 260 to 900 mg) was “Toxic effects were reported” and the “Alpha non-REM EEG sleep anomaly and mood ratings” value (fibromyalgia patients [4]) was “did not favorably change”. The “Pain (tender point count and dolorimetry)” value (fibromyalgia patients [4]) was “did not experience decreased pain”, the “Difference in efficacy between regimens” value (fibromyalgia patients [5]; 10 mg/day vs 30 mg/day) was “no significant difference in efficacy” and the “Tender points, quality of sleep and other symptoms” value (fibromyalgia patients [5]; 10 mg/day) was “decline in the number of tender points and improvement in the quality of sleep, anxiety, fatigue, irritable bowel syndrome and stiffness”. The “Tender points, quality of sleep and other symptoms” value (fibromyalgia patients [5]; 30 mg/day) was “decline in the number of tender points and improvement in the quality of sleep, anxiety, fatigue, irritable bowel syndrome and stiffness” and the Response to treatment (fibromyalgia patients [6]) was “responded “favorably””.
For `CNCCC=C1c2ccccc2CCc2ccccc21` [nortriptyline], the “Response to trial of nortriptyline” value ([1]; fibromyalgia patient not helped by cyclobenzaprine 2.5 mg, dose not given) was “did well”.
